{
  "source": "patent US5625061A",
  "about": "“Compounds useful in preparing antiproliferative agents and garft inhibitors” (Agouron Pharmaceuticals, Inc., priority 1995, dated 1997)",
  "key": {"GARFT": {"system": "GARFT", "conditions": "F. M. Muggia, New Drugs, 1992; cited from earlier work"}, "[1]": {"system": "6C3HED lymphosarcoma implanted in C3H/He female mice", "assay": "In vivo antitumor activity, 6C3HED lymphosarcoma", "set-up": "species or system mouse", "conditions": "intraperitoneal, once daily for nine days, day 11", "protocol": "On day zero, 2 mm^2 trocar fragments of 6C3HED lymphosarcoma were implanted subcutaneously in the axillary region into groups of six C3H/He female mice. Starting on day 1, the test compound was administered intraperitoneally in 40% Encapsin given once daily for nine days. Control animals received identical treatment without test: compound. The percentage inhibition given in Table 5 below was calculated by comparing the mass of the control tumors (receiving diluent only) on day 11 to those of animals receiving test compound."}, "[2]": {"system": "C3H/BA mammary adenocarcinoma implanted in C3H/He female mice", "assay": "In vivo antitumor activity, C3H/BA mammary adenocarcinoma", "set-up": "species or system mouse", "conditions": "intraperitoneal, once daily for nine days, day 14", "protocol": "On day zero, 2 mm^2 trocar fragments of C3H/BA mammary adenocarcinoma were implanted subcutaneously in the axillary region into groups of six C3H/He female mice. Starting on day 1, the test compound was administered intraperitoneally in 40% Encapsin given once daily for nine days. Control animals received identical treatment without test compound. The percentage of inhibition was calculated by comparing the mass of the control tumors (receiving diluent only) on day 14 to those of animals receiving test compound."}},
  "data": [
    {"smiles": "Nc1nc2c(c(=O)[nH]1)CC(CCc1ccc(C(=O)N[C@@H](CCC(=O)O)C(=O)O)cc1)CN2", "note": "(stereo partly shown) [5,10-dideazatetrahydrofolic acid]", "values": [
      {"measurement": "GARFT inhibition (in words)", "setting": "GARFT", "value": "specific tight binding inhibitor of GARFT"}
    ]},
    {"smiles": "Nc1nc2c(c(=O)[nH]1)SC(CCc1ccc(C(=O)N[C@@H](CCC(=O)O)C(=O)O)s1)CN2", "note": "(stereo partly drawn) [Compound 21, 4-[2-(2-Amino-4-oxo-4,6,7,8-tetrahydro-3H-pyrimido[5,4-6][1,4]thiazin-6-yl)-ethyl]-2,5-thienoylamino -L-glutamic acid]", "values": [
      {"measurement": "% Inhibition (tumor mass)", "setting": "[1]; 12.5 mg/kg", "value": 100, "unit": "%"},
      {"measurement": "% Inhibition (tumor mass)", "setting": "[1]; 25 mg/kg", "value": 100, "unit": "%"},
      {"measurement": "% Inhibition column: toxicity", "setting": "[1]; 50 mg/kg", "value": "toxic"},
      {"measurement": "% Inhibition (tumor mass)", "setting": "[2]; 5 mg/kg", "value": 16, "unit": "%"},
      {"measurement": "% Inhibition (tumor mass)", "setting": "[2]; 10 mg/kg", "value": 84, "unit": "%"},
      {"measurement": "% Inhibition (tumor mass)", "setting": "[2]; 20 mg/kg", "value": 100, "unit": "%"}
    ]}
  ]
}
